Laboratory results taken from patent publication US20060205679A1, “Topical and oral formulations of cardiac glycosides for treating skin diseases” (Azaya Therapeutics, Inc., priority 2004, published 2006).

Columns and labels:
[1] = tested on: cultered cancer cell lines; conditions: cited from earlier work
[2] = tested on: human malignant cell lines; conditions: rapidly proliferating normal cells not affected; cited from earlier work
[3] = tested on: primary cultures of tumor cells from patients and a human cell line panel; conditions: cited from earlier work
[4] = tested on: androgen independent human prostate cancer cell lines; conditions: in-vitro; cited from earlier work
[5] = in 50 ml of 9.6% solution of hydroxypropyl-β-cyclodextrin, 70 to 80° C.
Description: 200 mg of oleandrin was weighed and placed in a sterile test tube. The oleandrin was dissolved in 3 to 5 mL of purified absolute ethanol. […] The ethanolic solution of oleandrin was slowly added to the beaker with stirring. […] The solution was sterile-filtered through a 0.22 μm filter. The solution was frozen below −40° C. and lyophilized.
500 mg of digitoxin was weighed and placed in a sterile test tube. […] The ethanolic solution of digitoxin was slowly added to the beaker with stirring. […] The solution was sterile-filtered through a 0.22 μm filter. The solution was frozen below −40° C. and lyophilized.
200 mg of proscillaridin-A was weighed and placed in a sterile test tube and was dissolved in 5 to 10 mL of purified absolute ethanol. […] The ethanolic solution of proscillaridin-A was slowly added to the beaker with stirring. […] The solution was sterile filtered through a 0.22 μm filter. The solution was frozen below −40° C. and lyophilized.

[6] = tested on: human cancer cells; conditions: cited from earlier work
[7] = tested on: murine cancer cells; conditions: cited from earlier work
[8] = tested on: AP-1; conditions: cited from earlier work
[9] = tested on: NF-κB; conditions: cited from earlier work
[10] = tested on: c-Jun NH2-terminal kinase; conditions: cited from earlier work
[11] = cited from earlier work
[12] = tested on: FGF-2 release from DU145 cells; conditions: oleandrin 0.1 ng/mL; cited from earlier work
[13] = tested on: FGF-2 release from PC3 cells; conditions: oleandrin 0.1 ng/mL; cited from earlier work

## CO[C@@H]1C[C@H](O[C@H]2CC[C@@]3(C)[C@H](CC[C@@]45O[C@@]46CC[C@H](C4=CC(=O)OC4)[C@@]6(C)CC[C@H]35)C2)O[C@H](C)[C@@H]1O [adynerin]
[1]
  anti-cancer activity: significant anti-cancer activity

## C[C@H]1O[C@@H](O[C@H]2[C@@H](O)C[C@H](O[C@H]3[C@@H](O)C[C@H](O[C@H]4CC[C@@]5(C)[C@H](CC[C@@H]6[C@@H]5CC[C@]5(C)[C@@H](C7=CC(=O)OC7)CC[C@]65O)C4)O[C@@H]3C)O[C@@H]2C)C[C@H](O)[C@@H]1O [digitoxin]
[2]
  growth and apoptosis at non-toxic concentrations: inhibit growth and induce apoptosis

## C[C@H]1O[C@@H](O[C@H]2[C@@H](O)C[C@H](O[C@H]3[C@@H](O)C[C@H](O[C@H]4CC[C@@]5(C)[C@H](CC[C@@H]6[C@@H]5C[C@@H](O)[C@]5(C)[C@@H](C7=CC(=O)OC7)CC[C@]65O)C4)O[C@@H]3C)O[C@@H]2C)C[C@H](O)[C@@H]1O [digoxin]
[2]
  growth and apoptosis at non-toxic concentrations: inhibit growth and induce apoptosis
[3]
  selective toxicity against solid or hematological tumor cells from patients: selective toxicity against solid tumor cells
[4]
  induction of apoptosis: induce apoptosis

## CO[C@H]1C[C@H](O[C@H]2CC[C@@]3(C)[C@H](CC[C@@H]4[C@@H]3CC[C@]3(C)[C@@H](C5=CC(=O)OC5)[C@@H](OC(C)=O)C[C@]43O)C2)O[C@@H](C)[C@@H]1O [oleandrin, 16β-acetoxy-3β-[(2,6 dideoxy-3-0-methyl-α2-L-arabino-hexopyranosyl)oxy]-14-hydroxy-5β, 14β-card-20(22)-enolide]
[5]
  amount effectively solubilized: 200 mg
[6]
  ability to kill human cancer cells: able to kill
[7]
  toxicity to murine cancer cells: not toxic
[8]
  AP-1 activation induced by TNF and other stimuli: blocked
[9]
  NF-κB activation induced by phorbol esters and bacterial lipopolysaccharide: blocked
  NF-κB-dependent reporter gene transcription activated by TNF: suppressed
[9]; concentration and time dependent
  TNF induced activation of NF-κB: blocked
[4]
  induction of apoptosis: induce apoptosis
[10]
  TNF induced activation of c-Jun NH2-terminal kinase: inhibited
[11]; ethanol and chloroform
  solubility in organic solvents: soluble
[11]; heat
  stability with respect to heat: heat stable
[11]; light
  stability with respect to light: unstable
[11]; water
  solubility in water: almost insoluble
[1]
  anti-cancer activity: significant anti-cancer activity
[12]
  inhibition of FGF-2 release: 49.9%
[13]
  inhibition of FGF-2 release: 45.7%

## C[C@@H]1O[C@@H](O[C@H]2C[C@@H](O)[C@]3(CO)[C@H]4[C@H](O)C[C@]5(C)[C@@H](C6=CC(=O)OC6)CC[C@]5(O)[C@@H]4CC[C@]3(O)C2)[C@H](O)[C@H](O)[C@H]1O [ouabain]
[4]
  induction of apoptosis: induce apoptosis

## C[C@@H]1O[C@@H](O[C@@H]2C=C3CC[C@@H]4[C@H](CC[C@]5(C)[C@@H](c6ccc(=O)oc6)CC[C@]45O)[C@@]3(C)CC2)[C@H](O)[C@H](O)[C@H]1O [proscillaridin-A, Proscillaridin A, reference compound]
[5]
  amount effectively solubilized: 200 mg
[3]
  selective toxicity against solid or hematological tumor cells from patients: no selective toxicity

## C[C@H]1[C@H](C)CC[C@]2(C(=O)O)CC[C@]3(C)C(=CC[C@@H]4[C@@]5(C)CC[C@H](O)C(C)(C)[C@@H]5CC[C@]43C)[C@H]12 [ursolic acid]
[1]
  anti-cancer activity: significant anti-cancer activity
